Test results from ChEMBL document CHEMBL1909046, “DrugMatrix in vitro pharmacology data”.

How the values were obtained:
Estrogen receptor beta = Estrogen receptor beta (Homo sapiens, UniProt Q92731); settings: sf9; note: in other assays of this panel Not Active means under 50% inhibition at 10 µM
Adenosine receptor A3 = target: T1, Adenosine receptor A3 (Homo sapiens, UniProt P0DMS8); format: cell membranes, CHO-K1, Membrane;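 note: radioligand binding assay with AB-MECA serving as the labeled ligand; in other assays of this panel Not Active means under 50% inhibition at 10 µM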
T1 sequence (P0DMS8 whole entry): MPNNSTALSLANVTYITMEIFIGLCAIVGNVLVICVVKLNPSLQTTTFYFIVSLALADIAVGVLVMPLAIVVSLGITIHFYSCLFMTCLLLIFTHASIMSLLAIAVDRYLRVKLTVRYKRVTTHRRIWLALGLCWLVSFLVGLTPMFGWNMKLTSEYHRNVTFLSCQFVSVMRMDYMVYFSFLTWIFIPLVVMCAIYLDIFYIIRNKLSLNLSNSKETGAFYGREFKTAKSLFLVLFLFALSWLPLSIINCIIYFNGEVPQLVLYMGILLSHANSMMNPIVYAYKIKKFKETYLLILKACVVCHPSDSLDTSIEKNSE

[1] = target: T2, Alpha-2C adrenergic receptor (Homo sapiens, UniProt P18825); test: DRUGMATRIX: Adrenergic Alpha-2C radioligand binding (ligand: [3H] MK-912); format: cell membranes, Sf9, Membrane
T2 sequence (P18825 whole entry): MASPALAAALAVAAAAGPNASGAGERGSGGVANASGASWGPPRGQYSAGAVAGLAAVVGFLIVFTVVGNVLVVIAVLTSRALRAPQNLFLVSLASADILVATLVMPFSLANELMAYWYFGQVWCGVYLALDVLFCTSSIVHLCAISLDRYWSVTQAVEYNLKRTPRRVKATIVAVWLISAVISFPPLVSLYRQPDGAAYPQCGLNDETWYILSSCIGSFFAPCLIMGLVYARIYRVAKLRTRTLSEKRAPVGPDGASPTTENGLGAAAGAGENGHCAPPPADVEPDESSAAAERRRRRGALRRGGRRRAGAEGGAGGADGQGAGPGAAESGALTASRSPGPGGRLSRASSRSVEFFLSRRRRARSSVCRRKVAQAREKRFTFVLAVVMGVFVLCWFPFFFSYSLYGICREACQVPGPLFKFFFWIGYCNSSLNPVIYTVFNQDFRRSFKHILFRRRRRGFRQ

Nitric oxide synthase 1 = Nitric oxide synthase 1 (Rattus norvegicus, UniProt P29476); format: tissue-based, Cerebellum; note: in other assays of this panel Not Active means under 50% inhibition at 10 µM
Nitric oxide synthase 1, sequence (P29476 whole entry): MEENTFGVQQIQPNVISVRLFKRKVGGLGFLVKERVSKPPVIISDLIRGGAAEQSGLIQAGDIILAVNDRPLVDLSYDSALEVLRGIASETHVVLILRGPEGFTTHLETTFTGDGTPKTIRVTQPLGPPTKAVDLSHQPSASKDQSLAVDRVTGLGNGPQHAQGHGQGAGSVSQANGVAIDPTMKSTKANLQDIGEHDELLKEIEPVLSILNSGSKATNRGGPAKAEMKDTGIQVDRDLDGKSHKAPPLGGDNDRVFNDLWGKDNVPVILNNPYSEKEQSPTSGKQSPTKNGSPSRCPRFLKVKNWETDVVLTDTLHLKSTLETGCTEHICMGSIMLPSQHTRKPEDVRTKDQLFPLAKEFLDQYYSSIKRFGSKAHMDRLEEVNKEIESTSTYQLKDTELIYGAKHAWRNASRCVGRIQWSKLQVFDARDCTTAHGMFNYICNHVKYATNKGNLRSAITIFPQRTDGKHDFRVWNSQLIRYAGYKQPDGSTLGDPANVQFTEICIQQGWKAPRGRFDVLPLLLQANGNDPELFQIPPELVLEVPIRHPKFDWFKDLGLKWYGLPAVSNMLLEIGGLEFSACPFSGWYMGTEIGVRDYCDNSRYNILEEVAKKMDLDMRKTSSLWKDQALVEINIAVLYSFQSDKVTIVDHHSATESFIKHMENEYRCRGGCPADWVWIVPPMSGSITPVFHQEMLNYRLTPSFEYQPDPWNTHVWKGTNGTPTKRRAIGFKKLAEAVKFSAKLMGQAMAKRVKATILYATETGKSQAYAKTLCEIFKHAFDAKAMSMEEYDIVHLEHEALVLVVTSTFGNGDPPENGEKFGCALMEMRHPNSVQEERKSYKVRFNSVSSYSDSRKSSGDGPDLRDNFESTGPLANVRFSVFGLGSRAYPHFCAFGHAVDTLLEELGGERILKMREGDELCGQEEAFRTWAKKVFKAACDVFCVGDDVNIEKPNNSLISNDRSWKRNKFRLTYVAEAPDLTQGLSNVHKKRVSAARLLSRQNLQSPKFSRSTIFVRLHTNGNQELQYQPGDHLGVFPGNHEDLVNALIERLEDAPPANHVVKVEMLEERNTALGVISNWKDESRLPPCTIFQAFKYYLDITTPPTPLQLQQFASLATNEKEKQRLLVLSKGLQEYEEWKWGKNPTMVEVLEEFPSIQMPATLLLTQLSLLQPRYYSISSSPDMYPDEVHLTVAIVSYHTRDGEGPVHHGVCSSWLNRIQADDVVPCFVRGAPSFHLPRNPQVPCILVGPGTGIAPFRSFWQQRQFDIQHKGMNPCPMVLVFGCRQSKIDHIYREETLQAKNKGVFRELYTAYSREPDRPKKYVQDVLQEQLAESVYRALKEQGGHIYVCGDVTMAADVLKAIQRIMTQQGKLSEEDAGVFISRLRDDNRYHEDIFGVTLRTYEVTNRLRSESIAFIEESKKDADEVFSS

Cytochrome P450 2D6 = Cytochrome P450 2D6 (Homo sapiens, UniProt P10635); settings: bti-tn-5b1-4; note: in other assays of this panel Not Active means under 50% inhibition at 10 µM
Cytochrome P450 2D6, sequence (P10635 whole entry): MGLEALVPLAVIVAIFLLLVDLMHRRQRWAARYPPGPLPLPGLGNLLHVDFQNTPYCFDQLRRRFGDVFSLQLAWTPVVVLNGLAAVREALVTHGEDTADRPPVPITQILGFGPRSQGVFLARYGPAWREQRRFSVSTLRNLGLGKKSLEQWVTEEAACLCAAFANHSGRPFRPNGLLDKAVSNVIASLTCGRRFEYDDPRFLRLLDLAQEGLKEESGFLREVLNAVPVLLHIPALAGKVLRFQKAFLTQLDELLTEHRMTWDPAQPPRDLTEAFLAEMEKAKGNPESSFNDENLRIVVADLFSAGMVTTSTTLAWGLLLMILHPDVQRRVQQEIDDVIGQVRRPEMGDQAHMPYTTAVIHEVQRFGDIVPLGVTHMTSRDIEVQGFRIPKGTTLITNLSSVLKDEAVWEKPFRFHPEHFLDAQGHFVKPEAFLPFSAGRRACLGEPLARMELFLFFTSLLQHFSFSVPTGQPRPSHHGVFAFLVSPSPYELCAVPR

[2] = DRUGMATRIX: Sodium/nucleoside co-transporter radioligand binding (ligand: nitrobenzylthioinosine); format: cell membranes, Cavia porcellus, Dunkin-Hartley, Cerebral cortex, Membrane; settings: Not Active = under 50% inhibition at 10 µM
Histamine H2 receptor = Histamine H2 receptor (Homo sapiens, UniProt P25021); format: cell membranes, CHO-K1, Membrane; settings: cho-k1; note: in other assays of this panel Not Active means under 50% inhibition at 10 µM
Histamine H2 receptor, sequence (P25021 whole entry): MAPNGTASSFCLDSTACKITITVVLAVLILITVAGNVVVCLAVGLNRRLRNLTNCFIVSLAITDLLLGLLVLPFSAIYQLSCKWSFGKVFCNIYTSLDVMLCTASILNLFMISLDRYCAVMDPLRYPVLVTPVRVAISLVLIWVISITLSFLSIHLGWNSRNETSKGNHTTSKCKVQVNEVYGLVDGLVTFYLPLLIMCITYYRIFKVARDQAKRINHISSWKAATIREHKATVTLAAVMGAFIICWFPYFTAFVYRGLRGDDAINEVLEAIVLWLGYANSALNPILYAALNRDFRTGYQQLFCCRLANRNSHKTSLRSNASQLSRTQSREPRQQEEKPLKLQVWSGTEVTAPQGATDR

Estrogen receptor beta, sequence (Q92731 whole entry): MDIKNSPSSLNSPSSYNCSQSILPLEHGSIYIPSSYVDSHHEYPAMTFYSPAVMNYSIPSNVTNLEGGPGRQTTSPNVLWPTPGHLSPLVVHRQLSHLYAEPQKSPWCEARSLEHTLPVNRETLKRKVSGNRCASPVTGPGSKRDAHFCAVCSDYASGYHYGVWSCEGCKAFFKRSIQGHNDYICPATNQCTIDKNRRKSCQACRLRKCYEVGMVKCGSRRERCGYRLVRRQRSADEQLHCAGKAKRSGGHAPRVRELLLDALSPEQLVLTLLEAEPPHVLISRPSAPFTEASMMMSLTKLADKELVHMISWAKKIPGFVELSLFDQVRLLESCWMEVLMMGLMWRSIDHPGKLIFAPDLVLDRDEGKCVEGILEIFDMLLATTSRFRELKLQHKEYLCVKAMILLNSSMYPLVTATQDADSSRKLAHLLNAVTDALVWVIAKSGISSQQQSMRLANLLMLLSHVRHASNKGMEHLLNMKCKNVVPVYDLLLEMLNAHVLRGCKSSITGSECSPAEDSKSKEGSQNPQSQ

CO[C@H]1O[C@@H]2O[C@@]3(C)CC[C@H]4[C@H](C)CC[C@@H]([C@H]1C)[C@@]24OO3
Not Active: IC50 (Estrogen receptor beta) | IC50 (Adenosine receptor A3; cho-k1) | IC50 ([1]; sf9) | IC50 (Nitric oxide synthase 1) | IC50 (Cytochrome P450 2D6) | Ki (Cytochrome P450 2D6) | IC50 [2] | Ki [2] | IC50 (Histamine H2 receptor)

C#C[C@]1(O)CC[C@H]2[C@@H]3CCC4=CC(=O)CC[C@@H]4[C@H]3CC[C@@]21C [NORETHINDRONE]
Not Active: IC50 (Estrogen receptor beta) | IC50 (Adenosine receptor A3; cho-k1) | IC50 ([1]; sf9) | IC50 (Nitric oxide synthase 1) | IC50 (Cytochrome P450 2D6) | Ki (Cytochrome P450 2D6) | IC50 [2] | Ki [2] | IC50 (Histamine H2 receptor)

CC12CCC(CC1=O)C2(C)C (centres undefined) [CAMPHOR]
Not Active: IC50 (Estrogen receptor beta) | IC50 (Adenosine receptor A3; cho-k1) | IC50 ([1]; sf9) | IC50 (Nitric oxide synthase 1) | IC50 (Cytochrome P450 2D6) | Ki (Cytochrome P450 2D6) | IC50 [2] | Ki [2] | IC50 (Histamine H2 receptor)

C[C@@H]1[C@H](O)[C@@H](C)/C=C/C=C/C=C/C=C/C=C/C=C/C=C/[C@H](O[C@@H]2O[C@H](C)[C@@H](O)[C@H](N)[C@@H]2O)C[C@@H]2O[C@](O)(C[C@@H](O)C[C@@H](O)[C@H](O)CC[C@@H](O)C[C@@H](O)CC(=O)O[C@H]1C)C[C@H](O)[C@H]2C(=O)O [AMPHOTERICIN B]
Not Active: IC50 (Estrogen receptor beta) | IC50 (Adenosine receptor A3; cho-k1) | IC50 ([1]; sf9) | IC50 (Nitric oxide synthase 1) | IC50 (Cytochrome P450 2D6) | Ki (Cytochrome P450 2D6) | IC50 [2] | Ki [2] | IC50 (Histamine H2 receptor)

O=C(O)COC(=O)Cc1ccccc1Nc1c(Cl)cccc1Cl [ACECLOFENAC]
Not Active: IC50 (Estrogen receptor beta) | IC50 (Adenosine receptor A3; cho-k1) | IC50 ([1]; sf9) | IC50 (Nitric oxide synthase 1) | IC50 (Cytochrome P450 2D6) | Ki (Cytochrome P450 2D6) | IC50 [2] | Ki [2] | IC50 (Histamine H2 receptor)

O=C(O)CCc1nc(-c2ccccc2)c(-c2ccccc2)o1 [OXAPROZIN]
Not Active: IC50 (Estrogen receptor beta) | IC50 (Adenosine receptor A3; cho-k1) | IC50 ([1]; sf9) | IC50 (Nitric oxide synthase 1) | IC50 (Cytochrome P450 2D6) | Ki (Cytochrome P450 2D6) | IC50 [2] | Ki [2] | IC50 (Histamine H2 receptor)

C=CCN1CC[C@]23c4c5ccc(O)c4O[C@H]2/C(=N/N=C2\CC[C@@]4(O)[C@H]6Cc7ccc(O)c8c7[C@@]4(CCN6CC=C)[C@H]2O8)CC[C@@]3(O)[C@H]1C5 [NALOXONAZINE]
Not Active: IC50 (Estrogen receptor beta) | IC50 (Adenosine receptor A3; cho-k1) | IC50 ([1]; sf9) | IC50 (Nitric oxide synthase 1) | IC50 (Cytochrome P450 2D6) | Ki (Cytochrome P450 2D6) | IC50 [2] | Ki [2] | IC50 (Histamine H2 receptor)

O=C(O)CO [GLYCOLIC ACID]
Not Active: IC50 (Estrogen receptor beta) | IC50 (Adenosine receptor A3; cho-k1) | IC50 ([1]; sf9) | IC50 (Nitric oxide synthase 1) | IC50 (Cytochrome P450 2D6) | Ki (Cytochrome P450 2D6) | IC50 [2] | Ki [2] | IC50 (Histamine H2 receptor)

O=C(Nc1ccc(Cl)c(Cl)c1)c1cc(Cl)cc(Cl)c1O [3,3',4',5-TETRACHLOROSALICYLANILIDE]
Not Active: IC50 (Estrogen receptor beta) | IC50 (Adenosine receptor A3; cho-k1) | IC50 ([1]; sf9) | IC50 (Nitric oxide synthase 1) | IC50 (Cytochrome P450 2D6) | Ki (Cytochrome P450 2D6) | IC50 [2] | Ki [2] | IC50 (Histamine H2 receptor)

Cc1ccnc2c1NC(=O)c1cccnc1N2C1CC1 [NEVIRAPINE]
Not Active: IC50 (Estrogen receptor beta) | IC50 (Adenosine receptor A3; cho-k1) | IC50 ([1]; sf9) | IC50 (Nitric oxide synthase 1) | IC50 (Cytochrome P450 2D6) | Ki (Cytochrome P450 2D6) | IC50 [2] | Ki [2] | IC50 (Histamine H2 receptor)

O=C1CN(/N=C/c2ccc([N+](=O)[O-])o2)C(=O)N1 [NITROFURANTOIN]
Not Active: IC50 (Estrogen receptor beta) | IC50 (Adenosine receptor A3; cho-k1) | IC50 ([1]; sf9) | IC50 (Nitric oxide synthase 1) | IC50 (Cytochrome P450 2D6) | Ki (Cytochrome P450 2D6) | IC50 [2] | Ki [2] | IC50 (Histamine H2 receptor)

O=c1[nH]c2ccccc2c2ccccc12
Not Active: IC50 (Estrogen receptor beta) | IC50 (Adenosine receptor A3; cho-k1) | IC50 ([1]; sf9) | IC50 (Nitric oxide synthase 1) | IC50 (Cytochrome P450 2D6) | Ki (Cytochrome P450 2D6) | IC50 [2] | Ki [2] | IC50 (Histamine H2 receptor)

COC(=O)C[C@](O)(CCC(C)(C)O)C(=O)O[C@@H]1C(OC)=C[C@]23CCCN2CCc2cc4c(cc2[C@H]13)OCO4 [HARRINGTONINE]
Not Active: IC50 (Estrogen receptor beta) | IC50 (Adenosine receptor A3; cho-k1) | IC50 ([1]; sf9) | IC50 (Nitric oxide synthase 1) | IC50 (Cytochrome P450 2D6) | Ki (Cytochrome P450 2D6) | IC50 [2] | Ki [2] | IC50 (Histamine H2 receptor)

Nc1nc(F)nc2c1ncn2[C@@H]1O[C@H](CO)[C@@H](O)[C@@H]1O [FLUDARABINE]
Not Active: IC50 (Estrogen receptor beta) | IC50 (Adenosine receptor A3; cho-k1) | IC50 ([1]; sf9) | IC50 (Nitric oxide synthase 1) | IC50 (Cytochrome P450 2D6) | Ki (Cytochrome P450 2D6) | IC50 [2] | Ki [2] | IC50 (Histamine H2 receptor)

CC[C@H]1OC(=O)[C@H](C)[C@@H](O[C@H]2C[C@@](C)(OC)[C@@H](O)[C@H](C)O2)[C@H](C)[C@@H](O[C@@H]2O[C@H](C)C[C@H](N(C)C)[C@H]2O)[C@](C)(O)C[C@@H](C)C(=O)[C@H](C)[C@@H](O)[C@]1(C)O [ERYTHROMYCIN]
Not Active: IC50 (Estrogen receptor beta) | IC50 (Adenosine receptor A3; cho-k1) | IC50 ([1]; sf9) | IC50 (Nitric oxide synthase 1) | IC50 (Cytochrome P450 2D6) | Ki (Cytochrome P450 2D6) | IC50 [2] | Ki [2] | IC50 (Histamine H2 receptor)

CCC1(c2ccccc2)C(=O)NC(=O)NC1=O [PHENOBARBITAL]
Not Active: IC50 (Estrogen receptor beta) | IC50 (Adenosine receptor A3; cho-k1) | IC50 ([1]; sf9) | IC50 (Nitric oxide synthase 1) | IC50 (Cytochrome P450 2D6) | Ki (Cytochrome P450 2D6) | IC50 [2] | Ki [2] | IC50 (Histamine H2 receptor)

CCN1C[C@]2(COC)[C@H](O)C[C@H](OC)[C@@]34[C@@H]5C[C@@]6(O)[C@H](OC(=O)c7ccccc7)[C@@H]5[C@@](OC(C)=O)([C@@H]([C@H](OC)[C@H]23)[C@@H]14)[C@@H](O)[C@@H]6OC [ACONITINE]
Not Active: IC50 (Estrogen receptor beta) | IC50 (Adenosine receptor A3; cho-k1) | IC50 ([1]; sf9) | IC50 (Nitric oxide synthase 1) | IC50 (Cytochrome P450 2D6) | Ki (Cytochrome P450 2D6) | IC50 [2] | Ki [2] | IC50 (Histamine H2 receptor)

CCN1CCN(C(=O)N[C@@H](C(=O)N[C@@H]2C(=O)N3[C@@H]2SC(C)(C)[C@@H]3C(=O)O)c2ccccc2)C(=O)C1=O [PIPERACILLIN]
Not Active: IC50 (Estrogen receptor beta) | IC50 (Adenosine receptor A3; cho-k1) | IC50 ([1]; sf9) | IC50 (Nitric oxide synthase 1) | IC50 (Cytochrome P450 2D6) | Ki (Cytochrome P450 2D6) | IC50 [2] | Ki [2] | IC50 (Histamine H2 receptor)

OC[C@H]1O[C@@H]2O[C@H]3[C@H](O)[C@@H](O)[C@@H](O[C@H]4[C@H](O)[C@@H](O)[C@@H](O[C@H]5[C@H](O)[C@@H](O)[C@@H](O[C@H]6[C@H](O)[C@@H](O)[C@@H](O[C@H]7[C@H](O)[C@@H](O)[C@@H](O[C@H]1[C@H](O)[C@H]2O)O[C@@H]7CO)O[C@@H]6CO)O[C@@H]5CO)O[C@@H]4CO)O[C@@H]3CO [ALFADEX]
Not Active: IC50 (Estrogen receptor beta) | IC50 (Adenosine receptor A3; cho-k1) | IC50 ([1]; sf9) | IC50 (Nitric oxide synthase 1) | IC50 (Cytochrome P450 2D6) | Ki (Cytochrome P450 2D6) | IC50 [2] | Ki [2] | IC50 (Histamine H2 receptor)

POVIDONE
Not Active: IC50 (Estrogen receptor beta) | Ki (Estrogen receptor beta) | IC50 (Adenosine receptor A3; cho-k1) | Ki (Adenosine receptor A3; cho-k1) | IC50 ([1]; sf9) | Ki ([1]; sf9) | IC50 (Nitric oxide synthase 1) | Ki (Nitric oxide synthase 1) | IC50 (Cytochrome P450 2D6) | Ki (Cytochrome P450 2D6) | IC50 [2] | Ki [2] | IC50 (Histamine H2 receptor) | Ki (Histamine H2 receptor)

CHROMIC CHLORIDE
Not Active: IC50 (Estrogen receptor beta) | Ki (Estrogen receptor beta) | IC50 (Adenosine receptor A3; cho-k1) | Ki (Adenosine receptor A3; cho-k1) | IC50 ([1]; sf9) | Ki ([1]; sf9) | IC50 (Nitric oxide synthase 1) | Ki (Nitric oxide synthase 1) | IC50 (Cytochrome P450 2D6) | Ki (Cytochrome P450 2D6) | IC50 [2] | Ki [2] | IC50 (Histamine H2 receptor) | Ki (Histamine H2 receptor)

Clc1cc(Cl)c(OCC#CI)cc1Cl [HALOPROGIN]
126 nM: Ki (Adenosine receptor A3; read-out: Ki)
Not Active: IC50 (Estrogen receptor beta) | IC50 (Nitric oxide synthase 1) | IC50 (Cytochrome P450 2D6) | Ki (Cytochrome P450 2D6) | IC50 [2] | Ki [2] | IC50 (Histamine H2 receptor)
223 nM: IC50 (Adenosine receptor A3; read-out: IC50)
4040 nM: IC50 ([1]; read-out: IC50)
588 nM: Ki ([1]; read-out: Ki)

C[N+](C)(C)CCOP(=O)([O-])OC[C@H](O)CO
Not Active: IC50 (Estrogen receptor beta) | IC50 (Adenosine receptor A3; cho-k1) | IC50 ([1]; sf9) | IC50 (Nitric oxide synthase 1) | IC50 (Cytochrome P450 2D6) | Ki (Cytochrome P450 2D6) | IC50 [2] | Ki [2] | IC50 (Histamine H2 receptor)
